Assay results: ChEMBL document CHEMBL3817813, “Exploiting the co-reliance of tumours upon transport of amino acids and lactate: Gln and Tyr conjugates of MCT1 inhibitors” (Medchemcomm, 2016)
One block for each molecule: values may come before it. The source made the active and inactive calls. The calls are words filed in the database; no cut-off is given here.

What was measured:
[1] = test system: MDA-MB-231; test: Cytotoxicity against MCT1-deficient human MDA-MB-231 cells at 10 uM measured after 96 hrs by MTT assay; assay type: cell-based; conditions: mda-mb-231, 96 h
[2] = Drug uptake in Sprague-Dawley rat blood at 20 mg/kg, ip measured after 6 hrs by LC-MS/MS analysis; assay type: ADME, organism-based; conditions: whole blood, read-out: Drug uptake
[3] = Drug uptake in Sprague-Dawley rat brain at 20 mg/kg, ip measured after 24 hrs by LC-MS/MS analysis; assay type: ADME, organism-based; conditions: read-out: Drug uptake
[4] = Drug uptake in Sprague-Dawley rat lung at 20 mg/kg, ip measured after 6 hrs by LC-MS/MS analysis; assay type: ADME, organism-based; conditions: read-out: Drug uptake
[5] = Drug uptake in Sprague-Dawley rat spleen at 20 mg/kg, ip measured after 24 hrs by LC-MS/MS analysis; assay type: ADME, organism-based; conditions: read-out: Drug uptake
[6] = Drug uptake in Sprague-Dawley rat liver at 20 mg/kg, ip measured after 6 hrs by LC-MS/MS analysis; assay type: ADME, organism-based; conditions: read-out: Drug uptake
[7] = Drug uptake in Sprague-Dawley rat kidney at 20 mg/kg, ip measured after 24 hrs by LC-MS/MS analysis; assay type: ADME, organism-based; conditions: read-out: Drug uptake
[8] = Drug uptake in Sprague-Dawley rat blood at 20 mg/kg, ip measured after 24 hrs by LC-MS/MS analysis; assay type: ADME, organism-based; conditions: whole blood, read-out: Drug uptake
[9] = Drug uptake in Sprague-Dawley rat plasma at 20 mg/kg, ip measured after 6 hrs by LC-MS/MS analysis; assay type: ADME, organism-based
[10] = Drug uptake in Sprague-Dawley rat lung at 20 mg/kg, ip measured after 24 hrs by LC-MS/MS analysis; assay type: ADME, organism-based; conditions: read-out: Drug uptake
[11] = Drug uptake in Sprague-Dawley rat liver at 20 mg/kg, ip measured after 24 hrs by LC-MS/MS analysis; assay type: ADME, organism-based; conditions: read-out: Drug uptake
[12] = Drug uptake in Sprague-Dawley rat spleen at 20 mg/kg, ip measured after 6 hrs by LC-MS/MS analysis; assay type: ADME, organism-based; conditions: read-out: Drug uptake
[13] = Drug uptake in Sprague-Dawley rat brain at 20 mg/kg, ip measured after 6 hrs by LC-MS/MS analysis; assay type: ADME, organism-based; conditions: read-out: Drug uptake
[14] = Drug uptake in Sprague-Dawley rat plasma at 20 mg/kg, ip measured after 24 hrs by LC-MS/MS analysis; assay type: ADME, organism-based
[15] = Drug uptake in Sprague-Dawley rat spleen at 20 mg/kg, ip measured after 7 days by LC-MS/MS analysis; assay type: ADME, organism-based; conditions: read-out: Drug uptake
[16] = Drug uptake in Sprague-Dawley rat kidney at 20 mg/kg, ip measured after 6 hrs by LC-MS/MS analysis; assay type: ADME, organism-based; conditions: read-out: Drug uptake
[17] = biological target: T1, Monocarboxylate transporter 1 (Homo sapiens) (UniProt P53985); test: Activity at MCT1 (unknown origin) using [14C]lactate by cell based lactate flux assay
T1 sequence (whole entry): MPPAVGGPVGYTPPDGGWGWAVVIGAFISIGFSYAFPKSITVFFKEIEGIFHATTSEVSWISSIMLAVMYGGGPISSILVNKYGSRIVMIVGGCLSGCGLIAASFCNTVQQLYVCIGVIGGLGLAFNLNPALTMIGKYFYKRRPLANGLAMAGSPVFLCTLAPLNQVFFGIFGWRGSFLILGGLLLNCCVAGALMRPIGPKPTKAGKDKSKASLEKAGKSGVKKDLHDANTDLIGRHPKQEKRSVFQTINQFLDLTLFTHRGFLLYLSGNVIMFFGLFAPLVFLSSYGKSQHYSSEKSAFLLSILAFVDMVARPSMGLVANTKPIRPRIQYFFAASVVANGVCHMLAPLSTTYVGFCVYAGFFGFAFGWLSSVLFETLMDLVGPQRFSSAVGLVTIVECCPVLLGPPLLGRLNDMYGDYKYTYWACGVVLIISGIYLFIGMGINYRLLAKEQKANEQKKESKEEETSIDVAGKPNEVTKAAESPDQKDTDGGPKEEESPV

[18] = Drug uptake in Sprague-Dawley rat kidney at 20 mg/kg, ip measured after 7 days by LC-MS/MS analysis; assay type: ADME, organism-based; conditions: read-out: Drug uptake
[19] = Drug uptake in Sprague-Dawley rat liver at 20 mg/kg, ip measured after 7 days by LC-MS/MS analysis; assay type: ADME, organism-based; conditions: read-out: Drug uptake
[20] = Drug uptake in NOD/SCID mouse tumor measured after 24 hrs; assay type: ADME, Neoplasm; conditions: read-out: Drug uptake
[21] = Drug uptake in Sprague-Dawley rat plasma at 20 mg/kg, ip measured after 7 days by LC-MS/MS analysis; assay type: ADME, organism-based
[22] = Drug uptake in Sprague-Dawley rat blood at 20 mg/kg, ip measured after 7 days by LC-MS/MS analysis; assay type: ADME, organism-based; conditions: whole blood, read-out: Drug uptake
[23] = Drug uptake in Sprague-Dawley rat lung at 20 mg/kg, ip measured after 7 days by LC-MS/MS analysis; assay type: ADME, organism-based; conditions: read-out: Drug uptake
[24] = Drug uptake in Sprague-Dawley rat brain at 20 mg/kg, ip measured after 7 days by LC-MS/MS analysis; assay type: ADME, organism-based; conditions: read-out: Drug uptake

SMILES: CC(C)Cc1nn(C)c(=O)c2c(SCCCO)n(Cc3cnc(Cl)c4ccccc34)cc12
Activity [1]: Non-toxic

SMILES: CC(C)Cc1nn(C)c(=O)c2c(SCCCO)n(Cc3ccnc(Cl)c3)cc12
Activity [1]: Non-toxic

SMILES: CC(C)Cc1nn(C)c(=O)c2c(SCCCO)n(Cc3cnc(NCCCCCN)c4ccccc34)cc12
Activity [1]: Non-toxic

concentration at 6 h [2]: 140 nM | concentration at 24 h [3]: 270 nM | concentration at 6 h [4]: 61 nM | concentration at 24 h [5]: 420 nM | concentration at 6 h [6]: 63 nM | concentration at 24 h [7]: 160 nM | concentration at 24 h [8]: 63 nM | concentration at 6 h [9]: 27 nM | concentration at 24 h [10]: 74 nM | concentration at 24 h [11]: 60 nM | concentration at 6 h [12]: 740 nM | concentration at 6 h [13]: 190 nM | concentration at 24 h [14]: 4 nM | concentration at 168 h [15]: 43 nM | concentration at 6 h [16]: 120 nM
SMILES: CC(C)Cc1nn(C)c(=O)c2c(SCCCO)n(Cc3cccc4ccccc34)cc12
Activity [1]: Non-toxic

SMILES: CC(C)Cc1nn(C)c(=O)c2c(SCCCO)n(Cc3cc(Cl)nc4ccccc34)cc12
Activity [1]: Non-toxic

Activity [17]: Active
SMILES: CC(C)Cc1nn(C)c(=O)c2c(SCCCO)n(Cc3cnc(NCCCCCNC(=O)[C@@H](N)CCC(N)=O)c4ccccc34)cc12
Activity [1]: Non-toxic

SMILES: CC(C)Cc1nn(C)c(=O)c2c(SCCCO)n(Cc3ccc(NCCCCCN)nc3)cc12
Activity [1]: Non-toxic

SMILES: CC(C)Cc1nn(C)c(=O)c2c(SCCCO)n(Cc3cc(NCCCCCNC(=O)[C@@H](N)CCC(N)=O)nc4ccccc34)cc12
Activity [1]: Non-toxic

Activity [17]: Active | concentration at 6 h [2]: 4330 nM | concentration at 24 h [3]: 62 nM | concentration at 6 h [4]: 1540 nM | concentration at 168 h [18]: 210 nM | concentration at 168 h [19]: 98 nM | concentration at 24 h [5]: 1060 nM | concentration at 6 h [6]: 2500 nM | concentration at 24 h [20]: 300 nM | concentration at 24 h [7]: 960 nM | concentration at 168 h [21]: 4 nM | concentration at 168 h [22]: 41 nM | concentration at 24 h [8]: 76 nM | concentration at 6 h [9]: 3270 nM | concentration at 168 h [23]: 110 nM | concentration at 24 h [10]: 520 nM | concentration at 24 h [11]: 940 nM | concentration at 168 h [24]: 43 nM | concentration at 6 h [12]: 2260 nM | concentration at 6 h [13]: 110 nM | concentration at 24 h [14]: 12 nM | concentration at 168 h [15]: 190 nM | concentration at 6 h [16]: 1620 nM
SMILES: CC(C)Cc1nn(C)c(=O)c2c(SCCCO)n(Cc3ccc(C#CCCCOc4ccc(C[C@H](N)C(=O)O)cc4)c4ccccc34)cc12
Activity [1]: Non-toxic

Activity [17]: Active
SMILES: CC(C)Cc1nn(C)c(=O)c2c(SCCCO)n(Cc3ccc(C#CCCCNC(=O)[C@@H](N)CCC(N)=O)c4ccccc34)cc12
Activity [1]: Non-toxic

SMILES: CC(C)Cc1nn(C)c(=O)c2c(SCCCO)n(Cc3ccc(Br)c4ccccc34)cc12
Activity [1]: Non-toxic

SMILES: CC(C)Cc1nn(C)c(=O)c2c(SCCCO)n(Cc3ccnc(NCCCCCN)c3)cc12
Activity [1]: Non-toxic

SMILES: CC(C)Cc1nn(C)c(=O)c2c(SCCCO)n(Cc3cc(NCCCCCN)nc4ccccc34)cc12
Activity [1]: Non-toxic

SMILES: CC(C)Cc1nn(C)c(=O)c2c(SCCCO)n(Cc3ccc(Cl)nc3)cc12
Activity [1]: Non-toxic

SMILES: CC(C)Cc1nn(C)c(=O)c2c(SCCCO)n(Cc3ccnc(NCCCCCNC(=O)[C@@H](N)CCC(N)=O)c3)cc12
Activity [1]: Non-toxic

SMILES: CC(C)Cc1nn(C)c(=O)c2c(SCCCO)n(Cc3ccc(NCCCCCNC(=O)[C@@H](N)CCC(N)=O)nc3)cc12
Activity [1]: Non-toxic
